The record followed here is patent publication US20120115848A1, “Inhibitors of Polo-Like Kinase” (ELAN PHARMACEUTICALS, INC., priority 2010, published 2012).

For one experiment, the target named is T1, PLK3 (Homo sapiens, UniProt Q9H4B4).
T1 construct: GST (N)
The experiment can be described thus: PLK TR-FRET peptide assay (PLK3). Type of experiment: biochemical. Conditions: class symbols. The method, then:
(§1) Compounds as described herein (compounds of Formula I, e.g., compounds of the above Examples) are tested for their in vitro kinase activities using various PLK assays. An exemplary assay procedure is described below.
(§2) (1) Test compound solution preparation: prepare 4× compound solution in PLK assay buffer (50 mM HEPES, 10 mM MgCl2, 1 mM EGTA, 0.01% Tween-20, pH7.4). DTT is added to the buffer just before the experiment to a final concentration of 2 mM. Add 2.5 μl/well to a black 384-well low volume plate (4% DMSO at this step). (2) Kinase preparation: Prepare 2×GST-PLK 1, 2 or 3 (e.g., CarnaBio) solutions in assay buffer (6 nM for PLK1, 6 nM for PLK2 and 0.2 nM for PLK3). Add 5 μl/well, shake the plate, incubate the enzyme with compound at ret. Time for 15 min. (3) ATP/substrate mixture preparation: Prepare 4× (ATP/ULight-Topo Ha peptide substrate; e.g., Perkin Elmer) mixture in assay buffer (0.4 mM ATP/200 nM peptide). Add 2.5 μl/well, shake the plate and incubate at ret. Time. Reactions time: 60 min for PLK1, 60 min for PLK2 and 15 min for PLK3 (4) EDTA preparation: Dilute 0.5M EDTA to 24 mM with detection buffer. Add 5 μl/well to the plate, shake the plate well for 5 min. (5) Prepare 4× Eu-anti-P-Topo Ha (T1342) (e.g., Perkin Elmer) solution (8 nM) in detection buffer (50 Tris-HCl, 150 mM NaCl, 0.5% BSA, PH7.5). Add 5 μl/well to the plate, shake the plate and incubate at ret. Time for 1 h before reading on Envision at 665 nm/615 nm. The fluorescent signal as a function of compound concentration is used to determine the compound IC50.
For orientation: Time-resolved FRET reads energy transfer from a long-lived donor to a nearby acceptor.

Another experiment has as its target T2, PLK2 (Homo sapiens, UniProt Q9NYY3).
T2 construct: GST (N)
The experiment can be described thus: PLK TR-FRET peptide assay (PLK2). It counts as biochemical. Conditions: for selectivity relative to PLK1: compared to analogous compounds of WO 2011/079118; for activity with respect to PLK2: in vitro IC50 compared to analogous compounds of WO 2011/079118 (R1 methyl instead of fused ring). The protocol:
as §1, §2

In the next experiment the target is T3, PLK1 (Homo sapiens, UniProt P53350).
T3 construct: GST (N)
The experiment is described as follows: PLK TR-FRET peptide assay (PLK1). It counts as biochemical. The method, then:
as §1, §2

Experiment [1] concerns HEK-293 cells expressing α-synuclein and PLK2. The experiment is described as follows: 293-Syn/PLK2 cell assay (ratio of p-Ser-129 α-synuclein to total synuclein, ELISA). Type of experiment: cell-based. The conditions noted are these: for IC50: Homo sapiens, HEK293, HEK-293 cells expressing α-synuclein and PLK2, ratio of phosphorylated synuclein to total synuclein; for cell activity: cellular IC50 compared to analogous compounds of WO 2011/079118. The protocol:
Compounds as described herein (compounds of Formula I, e.g., compounds of the above Examples) are tested for their activity in HEK-293 cells expressing α-synuclein and PLK2. An exemplary assay procedure is described below.
(1) Plate HEK-293 cells stably transfected with α-synuclein in 10 cm dishes (Corning) at […] in 10% FCS/DMEM. (2) Transfect cells with PLK2 (PLK2-pCMV6 (Origene), at a concentration of 24 μg/dish and 72 μl Fugene6/dish (Roche)). (3) Trypsinize cells the following day and plate at 30,000 cells/well in PDL coated 96 well tissue culture plates (Becton Dickinson). (4) Starting with compounds at a concentration of 10 mM solutions, prepare five 1:3 serial dilutions in DMSO. (5) Dilute test and positive control compound DMSO stocks 1:100 into 10% FCS DMEM. (6) Change the cell media immediately prior to compound treatment, then add compound+DMEM to cells at 1:10 final dilution (final DMSO concentration is 0.1%). (7) After 2 hours, place the cells on ice, remove the media and the rinse cells once with cold phosphate buffered saline (PBS). Remove PBS and lyse the cells using a cell extraction buffer (CEB) (10 mM Tris, pH 7.4, 100 mM NaCl, 1 mM EDTA, 1 mM NaF, 1 mM EGTA, 20 mM Na4P2O7, 2 mM Na3VO4, 0.5% Deoxycholate, 1% TritonX-100, 10% Glycerol, 0.1% SDS) with added protease inhibitors (10 μg/ml leupeptin, 20 μg/ml aprotinin) (8) Freeze plates on dry ice and store at −80°.
Total and p-Ser-129 α-synuclein levels can be quantified with a sandwich ELISA (e.g., using 1H7 as the capture antibody and biotinylated 5C12 and 11A5 as the total and phospho synuclein reporter antibodies respectively; see e.g., J. Biol. Chem. 2006, 281:29739-29752, the disclosure of which is incorporated herein in its entirety). Alpha-synuclein phosphorylated at serine 129 (p-Ser-129 α-synuclein) levels are normalized to the total synuclein measured in each lysate and the ratio of phosphorylated synuclein to total synuclein as a function of compound concentration can be used to determine IC50 of the compounds.
(ELISA stands for enzyme-linked immunosorbent assay.)

Setting [2] is: PLK TR-FRET peptide assay, class symbols.
Setting [3] is: comparison with analogous compounds of WO 2011/079118.

The structures appear in SMILES notation.

T1 sequence (Q9H4B4 whole entry): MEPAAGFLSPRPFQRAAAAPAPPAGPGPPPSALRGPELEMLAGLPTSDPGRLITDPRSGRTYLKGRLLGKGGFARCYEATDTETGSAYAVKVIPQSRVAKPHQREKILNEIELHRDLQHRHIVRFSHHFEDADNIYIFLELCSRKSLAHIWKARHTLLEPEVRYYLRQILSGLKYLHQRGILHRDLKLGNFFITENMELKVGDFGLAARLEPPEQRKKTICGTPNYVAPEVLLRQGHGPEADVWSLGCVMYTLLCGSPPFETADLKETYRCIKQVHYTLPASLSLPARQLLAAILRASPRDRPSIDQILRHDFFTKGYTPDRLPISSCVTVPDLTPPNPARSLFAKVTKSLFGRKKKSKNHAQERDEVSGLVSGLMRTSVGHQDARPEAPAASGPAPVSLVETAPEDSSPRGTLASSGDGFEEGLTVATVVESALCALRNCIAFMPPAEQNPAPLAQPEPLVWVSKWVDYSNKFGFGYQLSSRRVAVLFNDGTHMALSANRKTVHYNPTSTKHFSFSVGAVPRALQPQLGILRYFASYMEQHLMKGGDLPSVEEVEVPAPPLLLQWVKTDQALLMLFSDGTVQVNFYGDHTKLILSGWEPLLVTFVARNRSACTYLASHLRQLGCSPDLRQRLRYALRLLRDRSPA
T2 sequence (Q9NYY3 whole entry): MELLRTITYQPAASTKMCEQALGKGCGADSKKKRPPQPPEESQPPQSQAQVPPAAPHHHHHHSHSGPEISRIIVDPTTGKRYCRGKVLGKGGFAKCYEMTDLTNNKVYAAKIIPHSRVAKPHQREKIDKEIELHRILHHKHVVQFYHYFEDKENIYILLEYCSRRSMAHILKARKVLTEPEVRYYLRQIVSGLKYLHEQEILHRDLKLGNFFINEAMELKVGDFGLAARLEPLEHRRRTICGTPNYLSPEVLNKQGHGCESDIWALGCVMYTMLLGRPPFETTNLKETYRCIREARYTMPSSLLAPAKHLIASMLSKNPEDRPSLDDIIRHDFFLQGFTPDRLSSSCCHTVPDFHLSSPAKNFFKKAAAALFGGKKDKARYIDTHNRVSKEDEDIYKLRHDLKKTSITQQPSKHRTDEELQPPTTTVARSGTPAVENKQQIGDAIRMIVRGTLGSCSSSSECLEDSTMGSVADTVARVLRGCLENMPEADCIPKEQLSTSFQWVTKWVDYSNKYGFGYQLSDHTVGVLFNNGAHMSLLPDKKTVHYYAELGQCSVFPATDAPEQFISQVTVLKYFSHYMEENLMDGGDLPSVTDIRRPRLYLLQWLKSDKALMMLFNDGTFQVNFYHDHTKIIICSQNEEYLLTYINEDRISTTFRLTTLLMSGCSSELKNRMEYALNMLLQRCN
T3 sequence (P53350 whole entry): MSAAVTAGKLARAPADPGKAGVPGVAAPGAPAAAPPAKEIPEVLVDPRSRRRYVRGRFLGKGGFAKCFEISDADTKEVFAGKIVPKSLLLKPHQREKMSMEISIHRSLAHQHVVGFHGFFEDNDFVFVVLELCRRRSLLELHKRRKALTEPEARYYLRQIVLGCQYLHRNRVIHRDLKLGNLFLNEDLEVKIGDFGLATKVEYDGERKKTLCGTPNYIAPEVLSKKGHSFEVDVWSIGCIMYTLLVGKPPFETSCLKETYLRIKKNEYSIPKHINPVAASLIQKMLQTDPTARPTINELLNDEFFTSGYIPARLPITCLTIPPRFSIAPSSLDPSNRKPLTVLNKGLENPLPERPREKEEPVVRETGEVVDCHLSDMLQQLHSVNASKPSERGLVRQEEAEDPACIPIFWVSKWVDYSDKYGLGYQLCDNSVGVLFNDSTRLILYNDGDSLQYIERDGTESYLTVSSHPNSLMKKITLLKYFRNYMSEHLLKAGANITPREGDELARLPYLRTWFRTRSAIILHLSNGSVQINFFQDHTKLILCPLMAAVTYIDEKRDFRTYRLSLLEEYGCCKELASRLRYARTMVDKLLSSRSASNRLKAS

Turning to `CC[C@@H]1c2nncn2-c2cnc(-c3c[nH]nc3-c3nccs3)nc2N1C1CCC1` [Example 695, (R)-2-(4-(5-cyclobutyl-4-ethyl-4,5-dihydro-[1,2,4]triazolo[4,3-f]pteridin-7-yl)-1H-pyrazol-3-yl)thiazole], the 50% inhibitory concentration (IC50) is 1000 to 10000 nM against PLK3, under 1000 nM at PLK2 (setting [2]) and 1000 to 10000 nM at PLK1 (setting [2]).
Consider `CC[C@@H]1c2nncn2-c2cnc(-n3ccnc3-c3ccc(F)cc3)nc2N1C1CCC1` [Example 7, (R)-5-Cyclobutyl-4-ethyl-7-(2-(4-fluorophenyl)-1H-imidazol-1-yl)-4,5-dihydro-[1,2,4]triazolo[4,3-f]pteridine], for which the IC50 is 10000 to 50000 nM against PLK3; under 1000 nM on PLK2 (setting [2]); 40 nM at PLK2 (setting [3]); 2900 nM in experiment [1]; 1000 to 10000 nM at PLK1 (setting [2]); 6260 nM at PLK1 (setting [3]). The “selectivity relative to PLK1” value at PLK2 is listed as “comparable selectivity”. At PLK2 (setting [3]), the “ratio Plk2 IC50 / Plk1 IC50 (selectivity relative to PLK1)” value was determined as 0.0064. Besides, the “activity with respect to PLK2” value on PLK2 is reported as “comparable activity”. In addition, the cell activity entry in experiment [1] is on record as “comparable cell activity”.
In the case of `CC[C@@H]1C(=O)N(C)c2cnc(-n3ccnc3-c3ccccc3)nc2N1C1CCC1` [PCT Example 47, reference compound], the figures for the concentration for half-maximal inhibition (IC50) (against PLK2 (setting [3]); in experiment [1]; against PLK1 (setting [3])) were 7 nM, 670 nM and 194 nM, respectively. Besides, on PLK2 (setting [3]), the “ratio Plk2 IC50 / Plk1 IC50 (selectivity relative to PLK1)” value is on record as 0.036.
On to `CC[C@@H]1C(=O)N(C)c2cnc(-n3ccnc3-c3ccccc3F)nc2N1C1CCC1` [PCT Example 49, reference compound], for which the IC50 was 4.5 nM against PLK2 (setting [3]), 420 nM in experiment [1] and 77 nM at PLK1 (setting [3]). Besides, the “ratio Plk2 IC50 / Plk1 IC50 (selectivity relative to PLK1)” value on PLK2 (setting [3]) came out at 0.058.
On to `CC[C@@H]1c2nncn2-c2cnc(-n3ccnc3-c3ccc(F)cc3F)nc2N1C1CCC1` [Example 11, (R)-5-Cyclobutyl-7-(2-(2,4-difluorophenyl)-1H-imidazol-1-yl)-4-ethyl-4,5-dihydro-[1,2,4]triazolo[4,3-f]pteridine], for which the figures for the IC50 at PLK3, on PLK2 (setting [2]) and against PLK1 (setting [2]) were 10000 to 50000 nM, under 1000 nM and 1000 to 10000 nM, respectively.
In the case of `CC[C@@H]1c2nncn2-c2cnc(-n3ccnc3-c3ccc(F)cc3)nc2N1C1CCC1` [PCT Example 50, reference compound], the figures for the IC50 against PLK2 (setting [3]) and on PLK1 (setting [3]) were 20 nM and 2060 nM, respectively.
Turning to `CC[C@@H]1c2nncn2-c2cnc(-n3ccnc3-c3ccccc3F)nc2N1C1CCC1` [Example 5, (R)-5-cyclobutyl-4-ethyl-7-(2-(2-fluorophenyl)-1H-imidazol-1-yl)-4,5-dihydro-[1,2,4]triazolo[4,3-f]pteridine], the half-maximal inhibitory concentration (IC50) is 1000 to 10000 nM against PLK3; under 1000 nM against PLK2 (setting [2]); 6 nM at PLK2 (setting [3]); 440 nM in experiment [1]; under 1000 nM on PLK1 (setting [2]); 317 nM on PLK1 (setting [3]). Besides, the “selectivity relative to PLK1” value at PLK2 is given as “comparable selectivity”. Moreover, on PLK2 (setting [3]), the “ratio Plk2 IC50 / Plk1 IC50 (selectivity relative to PLK1)” value worked out at 0.019. Also, the “activity with respect to PLK2” value at PLK2 is given as “comparable activity”. The cell activity entry in experiment [1] is recorded as “comparable cell activity”.
With `CC[C@@H]1c2nncn2-c2cnc(-n3ccnc3-c3ccc(F)c(F)c3)nc2N1C1CCC1` [Example 1, (R)-5-Cyclobutyl-7-(2-(3,4-difluorophenyl)-1H-imidazol-1-yl)-4-ethyl-4,5-dihydro-[1,2,4]triazolo[4,3-f]pteridine], the 50% inhibitory concentration (IC50) against PLK3 is 10000 to 50000 nM; on PLK2 (setting [2]), under 1000 nM; on PLK2 (setting [3]) it was 92 nM; in experiment [1], 4400 nM; at PLK1 (setting [2]), 10000 to 50000 nM; against PLK1 (setting [3]), 14600 nM. Besides, the “selectivity relative to PLK1” value at PLK2 is “comparable selectivity”. Moreover, the “ratio Plk2 IC50 / Plk1 IC50 (selectivity relative to PLK1)” value at PLK2 (setting [3]) is 0.0063. The “activity with respect to PLK2” value on PLK2 was “comparable activity”. The cell activity result in experiment [1] is “comparable cell activity”.
Take `CC[C@@H]1c2nncn2-c2cnc(-n3ccnc3-c3ccccc3)nc2N1C1CCC1` [Example 3, (R)-5-Cyclobutyl-4-ethyl-7-(2-phenyl-1H-imidazol-1-yl)-4,5-dihydro-[1,2,4]triazolo[4,3-f]pteridine]: the IC50 against PLK3 is 1000 to 10000 nM; at PLK2 (setting [2]) it was under 1000 nM; against PLK2 (setting [3]), 8.5 nM; in experiment [1], 420 nM; on PLK1 (setting [2]), under 1000 nM; on PLK1 (setting [3]), 441 nM. In addition, on PLK2, the “selectivity relative to PLK1” value was “comparable selectivity”. Moreover, on PLK2 (setting [3]), the “ratio Plk2 IC50 / Plk1 IC50 (selectivity relative to PLK1)” value amounted to 0.019. Moreover, the “activity with respect to PLK2” value on PLK2 is given as “comparable activity”. The cell activity entry in experiment [1] is listed as “comparable cell activity”.
For the molecule `CC[C@@H]1c2nncn2-c2cnc(-n3ccnc3-c3cccc(F)c3F)nc2N1C1CCC1` [Example 9, (R)-5-cyclobutyl-7-(2-(2,3-difluorophenyl)-1H-imidazol-1-yl)-4-ethyl-4,5-dihydro-[1,2,4]triazolo[4,3-f]pteridine], the IC50 against PLK3 is 1000 to 10000 nM; at PLK2 (setting [2]), under 1000 nM; against PLK1 (setting [2]), under 1000 nM.
For the molecule `CC[C@@H]1C(=O)N(C)c2cnc(-n3ccnc3-c3ccc(F)c(F)c3)nc2N1C1CCC1` [PCT Example 48, reference compound], the half-maximal inhibitory concentration (IC50) is 39 nM against PLK2 (setting [3]), 4300 nM in experiment [1] and 3560 nM on PLK1 (setting [3]). The “ratio Plk2 IC50 / Plk1 IC50 (selectivity relative to PLK1)” value on PLK2 (setting [3]) is 0.011.

For orientation: IC50 means the midpoint of a concentration-inhibition curve.
